The source of these data is patent publication EP1333824B1, “TREATMENT OF SEXUAL DYSFUNCTION WITH BOMBESIN RECEPTOR ANTAGONISTS” (Warner-Lambert Company LLC, priority 2000, dated 2002).

In experiment [1] the test system is Sprague Dawley male rats. The experiment is described as follows: Sexual behaviour of fluoxetine-induced sexually dysfunctional male rats. It is filed as in vivo, rat. The settings on record: fluoxetine 20mg/kg i.p. 3 days (vs vehicle+vehicle). How it is done:
(§1) Sprague Dawley male rats (Charles River, UK) were kept, 4 rats per cage, in a reversed lighting regime (12:12 hours, lights off at 5.00 h), with free access to food and water. The rats were pre-selected by being presented with a receptive female at 4 days intervals, i.e. every third day (having 2 clear days between presentations) until completing 6-7 trials of baseline determination. The animals showing consistently vigorous behaviour (ejaculatory latencies <300s) were chosen for further experiments. Animals were treated for 3 consecutive days with either vehicle (water) or fluoxetine (20mg/kg, i.p., in a 2ml/kg dosing volume). […] All treatments were administered i.p. in a 1ml/kg volume, 1h before tests.
(§2) For all the sexual behaviour tests, the males were placed in an observation arena (50-60 cm diameter), starting 5 hours into the dark cycle and observed under red illumination. Three to 4 minutes after placing the male in the arena, a receptive female (ovariectomised, bearing a 7 mm Silastic implant of oestradiol benzoate) was introduced to the arena and the following parameters noted: Mount Latency: time (in seconds) taken between introduction of female and first mount. A maximum time of 15 minutes (900 seconds) was allowed, and the test terminated if no mounts were recorded within that time (Figure 16), Ejaculation Latency: time (in seconds) taken from first intromission to ejaculation. A maximum time of 30 minutes (1800 seconds) was given, and the test terminated if ejaculation was not achieved in that time (Figure 17), Percentage of males achieving ejaculation within 30 minutes was calculated (Figure 18).
A one-way ANOVA followed by Dunnett's t test was used to compare the fluoxetine+vehicle group and other groups for mount and ejaculatory latencies. Percentage of animals ejaculating was analysed using a Chi-square test followed by Fisher's test. (*: P<0.05, **: P<0.01, ***: P<0.001; n=15-19).

Experiment [2] concerns conscious male rat. As to the kind of experiment: Penile intracavernosal pressure in the conscious male rat (telemetry). It is filed as in vivo. How it is done:
In addition to treating women with FSD, bombesin antagonists will be useful in treating male erectile dysfunction (MED. Both the non-selective BB1/2 antagonists (Compound 1; 10mg/kg sc) and the selective BB1 receptor antagonist (Compound 3; 15mg/kg sc) is pro-erectile in a conscious rat model of penile erection (Figures 24 and 25). Erectile responses were recorded by measuring intracavernosal pressure using surgically implanted telemetric device. The specific details the surgical procedures, data acquisition and analysis can be found in detail in Bemabe 1999.
Compound 1 and compound 3 were dissolved in 50% β-cyclodextrin in saline. They were administered at a dose of 15mg/kg subcutaneously (sc). […] These increases equate to penile erection. Both Compounds 1 and 3 induced a number of erections in a similar manner to those observed with apomorphine or melanotan-II - both of which are clinically proven agents that are effective in the treatment of MED. Moreover the amplitude of the increases observed were similar to those observed with apomorphine or melanotan-II. The mechanism of action is thought to be similar to the effects on female genital flow ie CNS potentiation of the descending neuronal pathways that control penile erection.

For experiment [3], the system named is Sprague Dawley male rats. As to the kind of experiment: Sexual behaviour of normal (sexually vigorous) male rats. In kind it is in vivo, rat. The conditions noted are these: Compound (1) 15mg/kg or Fluoxetine 20mg/kg i.p. 1h before tests, vs vehicle. How it is done:
as §1, with “days” for “trials”, “experiments (n=24).” for “experiments.”, “randomised into three groups. All animals received all three treatments following a latin-square design. Treatments were administered once a week, with a baseline test in between treatments (4” for “treated for 3 consecutive”, “intervals between baseline and test day).” for “with either vehicle (water) or fluoxetine (20mg/kg, i.p., in a 2ml/kg dosing volume).”
as §2, with “11), Intromission Latency: time (in seconds) taken between introduction of female and first intromission (Figure 12), Number of Mounts: to reach ejaculation. When ejaculation was not reached, the number of mounts was not analyzed, Number of Intromissions: to reach ejaculation. When ejaculation was not reached, the number of intromissions was not analyzed (Figure 13 is number of mounts + intromissions),” for “16),”, “14), and Refractory Period: time (in seconds) taken from ejaculation to the first mount” for “17), Percentage”, “the next series of sexual activity. In those animals reaching” for “males achieving”, “the test” for “within 30 minutes”, “terminated at the end of the refractory period, as indicated by the first mount of the next sexual cycle” for “calculated”, “15).” for “18).”
A one-way ANOVA followed by Dunnett's t test was used to compare treated vs vehicle groups each day of testing, for all the sexual behaviour parameters.

Setting [4] is: day 4 Compound (1) 15mg/kg or yohimbine 2mg/kg i.p. 1h before tests (vs fluoxetine+vehicle).

`COc1ccc(C2(CNC(=O)[C@](C)(Cc3c[nH]c4ccccc34)NC(=O)Nc3ccc([N+](=O)[O-])cc3)CCCCC2)nc1` [Compound (1), (S) 3-(1H-Indol-3-yl)-N-[1-(5-methoxy-pyridin-2-yl)-cyclohexyl-methyl]-2-methyl-2-[3-(4-nitro-phenyl)-ureido]-propionamide]: in experiment [1] (setting [4]), the Ejaculation latency result is “significantly decreased” and the Mount latency entry is reported as “significantly decreased”. For the same compound, the “percentage of animals ejaculating” value in experiment [1] (within 30 minutes, day 4 Compound (1) 15mg/kg or yohimbine 2mg/kg i.p. (vs fluoxetine+vehicle)) is “increasing the percentage of animals ejaculating”. Besides, the “erectile response (penile erection)” value in experiment [2] (Compound 1 10mg/kg sc, Compound 3 15mg/kg sc) is listed as “pro-erectile”. In addition, the intracavernosal pressure result in experiment [2] (one hour after 10mg/kg sc Compound 1, 45 minutes after 15mg/kg sc compound 3) was “significant increases in intracavernosal pressure”. In experiment [3], the Ejaculation latency entry is reported as “no effect”, the Intromission latency entry is on record as “no effect”, the Mount latency result is reported as “no effect” and the Refractory period entry is recorded as “no effect”. Further, the “number of mounts and intromissions required to achieve ejaculation” value in experiment [3] was “no effect”.
